Laboratory results as given in ChEMBL document CHEMBL4020849, “4,6-Diaminopyrimidines as Highly Preferred Troponin I-Interacting Kinase (TNNI3K) Inhibitors” (J Med Chem, 2018).

Assays:
[1] = target: T1, Serine/threonine-protein kinase TNNI3K (Homo sapiens, UniProt Q59H18); assay: Inhibition of 5-({[2-({[3-({4-[(5-hydroxy-2-methylphenyl)amino]-2-pyrimidinyl}amino)phenyl]carbonyl}amino)-ethyl]amino}carbonyl)-2-(6-hydroxy-3-oxo-3H-xanthen-9-yl)benzoic acid binding to human full length His/MBP-fused TNNI3K expressed in baculovirus expression system after 60 mins by fluorescence polarization assay
T1 sequence (Q59H18 whole entry): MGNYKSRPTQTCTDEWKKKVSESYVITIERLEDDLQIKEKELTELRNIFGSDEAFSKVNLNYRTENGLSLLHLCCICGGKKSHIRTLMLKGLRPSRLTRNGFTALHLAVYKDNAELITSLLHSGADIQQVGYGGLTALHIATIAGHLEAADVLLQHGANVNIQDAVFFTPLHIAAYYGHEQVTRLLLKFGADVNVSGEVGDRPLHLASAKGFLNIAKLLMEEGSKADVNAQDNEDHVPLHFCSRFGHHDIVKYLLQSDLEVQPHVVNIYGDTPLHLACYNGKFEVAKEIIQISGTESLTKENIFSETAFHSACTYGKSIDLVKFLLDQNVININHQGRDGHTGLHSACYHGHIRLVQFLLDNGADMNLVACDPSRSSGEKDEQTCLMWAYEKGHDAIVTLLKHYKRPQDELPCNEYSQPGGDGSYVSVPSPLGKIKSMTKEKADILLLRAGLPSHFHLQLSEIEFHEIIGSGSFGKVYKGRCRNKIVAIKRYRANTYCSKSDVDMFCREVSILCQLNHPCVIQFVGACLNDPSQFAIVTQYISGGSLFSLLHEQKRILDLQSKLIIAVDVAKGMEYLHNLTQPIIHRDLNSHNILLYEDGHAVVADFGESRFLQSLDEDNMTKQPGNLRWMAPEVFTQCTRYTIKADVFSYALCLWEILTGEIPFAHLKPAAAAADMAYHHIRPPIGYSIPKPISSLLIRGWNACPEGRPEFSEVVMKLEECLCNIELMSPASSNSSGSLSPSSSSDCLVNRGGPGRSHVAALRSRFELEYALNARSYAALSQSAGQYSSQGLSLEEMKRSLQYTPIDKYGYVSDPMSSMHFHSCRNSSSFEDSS

[2] = target: Serine/threonine-protein kinase B-raf (Homo sapiens, UniProt P15056); assay: Inhibition of full length His6-tagged BRAF (unknown origin) expressed in baculovirus expression system assessed as reduction in MEK phosphorylation by measuring ADP production by BRAMA
[3] = target: T1, Serine/threonine-protein kinase TNNI3K; assay: Inhibition of human Myc-tagged TNNI3K autophosphorylation expressed in HEKMSR2 cells after 30 mins by DELFIA; assay type: cell-based
[4] = Volume of distribution at steady state in Sprague-Dawley rat plasma at 2 mg/kg, po administered as gastric bolus dose or 1 mg/kg, iv administered as 30 mins infusion by LC-MS/MS analysis; assay type: ADME, organism-based; conditions: read-out: Vdss
Rattus norvegicus = assay: Dose normalized AUC in Sprague-Dawley rat plasma at 2 mg/kg, po administered as gastric bolus dose by LC-MS/MS analysis; assay type: ADME, organism-based; conditions: in vivo
[5] = Selectivity index, ratio of IC50 for full length His6-tagged BRAF (unknown origin) expressed in baculovirus expression system to IC50 for human full length His/MBP-fused TNNI3K expressed in baculovirus expression system
Blood [6] = assay: Unbound drug level in mouse blood at 100 mg/kg/day administered through diet; assay type: ADME, organism-based; conditions: in vivo
Blood [7] = assay: Drug uptake in mouse blood at 100 mg/kg/day administered through diet; assay type: ADME, organism-based; conditions: in vivo, read-out: Drug uptake
[8] = target: Epidermal growth factor receptor (Homo sapiens, UniProt P00533); assay: Inhibition of EGFR (unknown origin)
[9] = Fraction unbound in mouse plasma; assay type: ADME, cell-free
Heart = assay: Drug uptake in mouse heart at 100 mg/kg/day administered through diet; assay type: ADME, organism-based; conditions: in vivo, read-out: Drug uptake
[10] = Oral bioavailability in Sprague-Dawley rat plasma at 2 mg/kg administered as gastric bolus dose by LC-MS/MS analysis; assay type: ADME, organism-based
[11] = Clearance in Sprague-Dawley rat plasma at 1 mg/kg, iv administered as 30 mins infusion by LC-MS/MS analysis; assay type: ADME, organism-based
[12] = Half life in Sprague-Dawley rat plasma at 2 mg/kg, po administered as gastric bolus dose or 1 mg/kg, iv administered as 30 mins infusion by LC-MS/MS analysis; assay type: ADME, organism-based
[13] = Selectivity index, ratio of IC50 for EGFR (unknown origin) to IC50 for human full length His/MBP-fused TNNI3K expressed in baculovirus expression system

Sequence of Epidermal growth factor receptor (P00533 whole entry): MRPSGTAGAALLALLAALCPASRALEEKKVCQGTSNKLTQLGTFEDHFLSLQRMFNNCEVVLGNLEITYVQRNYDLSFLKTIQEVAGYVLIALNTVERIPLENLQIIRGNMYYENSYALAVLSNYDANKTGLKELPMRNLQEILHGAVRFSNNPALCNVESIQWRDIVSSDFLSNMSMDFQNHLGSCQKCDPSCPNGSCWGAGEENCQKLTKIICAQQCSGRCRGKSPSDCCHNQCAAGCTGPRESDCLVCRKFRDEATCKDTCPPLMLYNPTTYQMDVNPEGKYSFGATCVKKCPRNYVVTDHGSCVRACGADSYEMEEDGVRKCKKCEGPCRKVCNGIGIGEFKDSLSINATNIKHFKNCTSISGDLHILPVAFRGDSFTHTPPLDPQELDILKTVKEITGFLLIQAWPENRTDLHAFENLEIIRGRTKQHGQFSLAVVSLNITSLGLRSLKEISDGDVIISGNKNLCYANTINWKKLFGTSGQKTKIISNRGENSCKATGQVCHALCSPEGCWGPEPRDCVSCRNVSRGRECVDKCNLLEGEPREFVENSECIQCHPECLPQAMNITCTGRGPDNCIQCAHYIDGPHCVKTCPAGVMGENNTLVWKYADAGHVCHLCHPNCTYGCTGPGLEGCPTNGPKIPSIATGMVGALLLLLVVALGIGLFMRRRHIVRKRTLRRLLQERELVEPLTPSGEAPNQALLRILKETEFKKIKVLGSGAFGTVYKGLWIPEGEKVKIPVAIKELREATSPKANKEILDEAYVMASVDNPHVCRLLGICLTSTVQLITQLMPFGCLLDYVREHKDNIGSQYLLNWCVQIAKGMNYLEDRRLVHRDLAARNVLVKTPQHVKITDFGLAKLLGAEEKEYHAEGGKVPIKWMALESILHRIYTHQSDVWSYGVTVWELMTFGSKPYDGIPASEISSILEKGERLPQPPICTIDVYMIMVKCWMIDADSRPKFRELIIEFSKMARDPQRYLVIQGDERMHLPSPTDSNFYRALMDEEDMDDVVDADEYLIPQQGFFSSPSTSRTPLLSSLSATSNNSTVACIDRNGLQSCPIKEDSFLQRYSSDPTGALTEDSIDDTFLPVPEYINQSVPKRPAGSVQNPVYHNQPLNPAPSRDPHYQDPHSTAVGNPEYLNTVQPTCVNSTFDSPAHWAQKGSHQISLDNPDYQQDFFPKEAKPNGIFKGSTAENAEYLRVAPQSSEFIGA
Sequence of Serine/threonine-protein kinase B-raf (P15056 whole entry): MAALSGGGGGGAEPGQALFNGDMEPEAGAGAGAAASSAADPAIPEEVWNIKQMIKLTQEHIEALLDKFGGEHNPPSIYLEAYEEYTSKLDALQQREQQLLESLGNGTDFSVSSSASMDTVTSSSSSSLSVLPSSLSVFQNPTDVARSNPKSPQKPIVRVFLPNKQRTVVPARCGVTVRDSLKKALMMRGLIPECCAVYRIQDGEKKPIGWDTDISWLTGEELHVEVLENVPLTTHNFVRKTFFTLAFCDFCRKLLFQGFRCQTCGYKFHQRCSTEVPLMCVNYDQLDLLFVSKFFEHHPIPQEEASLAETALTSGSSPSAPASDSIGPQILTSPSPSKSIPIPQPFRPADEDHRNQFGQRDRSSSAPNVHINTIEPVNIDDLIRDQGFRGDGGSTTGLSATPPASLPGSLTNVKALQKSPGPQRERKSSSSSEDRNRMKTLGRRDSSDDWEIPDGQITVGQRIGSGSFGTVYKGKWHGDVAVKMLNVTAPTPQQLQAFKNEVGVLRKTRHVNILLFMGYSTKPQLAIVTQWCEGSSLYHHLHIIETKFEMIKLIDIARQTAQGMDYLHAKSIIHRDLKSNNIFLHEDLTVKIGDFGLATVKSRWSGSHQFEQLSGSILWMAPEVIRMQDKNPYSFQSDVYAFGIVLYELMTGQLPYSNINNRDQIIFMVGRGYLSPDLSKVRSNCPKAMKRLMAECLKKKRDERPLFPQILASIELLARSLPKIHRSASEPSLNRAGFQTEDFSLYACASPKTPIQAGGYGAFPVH

`CNc1cc(Nc2cccc(S(=O)(=O)NC)c2)ncn1` gave an IC50 [1] of 800 nM.

For `CNS(=O)(=O)c1cccc(Nc2cc(Nc3ccccc3F)ncn2)c1`, the IC50 [1] was 630 nM.

`CNS(=O)(=O)c1cccc(Nc2cc(Nc3ccc(C(F)(F)F)cn3)ncn2)c1` gave an IC50 [1] of 16 nM.

`CCS(=O)(=O)c1ccc(S(=O)(=O)NC)cc1Nc1cc(Nc2ccc(Cl)cn2)ncn1` showed an IC50 [2] of 250 nM, an IC50 [3] of 8 nM and a Vd [4] of 1.9 L/kg. The AUC/dose (Rattus norvegicus) was 0.56 kg·h/L, the “Ratio IC50” value [5] was “>=25” and the Drug uptake(free) (Blood [6]) was 14 to 56 nM. It also gave a concentration (Blood [7]) of 400 to 1600 nM, an IC50 [1] of at most 10 nM and an IC50 [8] of over 25000 nM. For the same compound, the fraction unbound [9] was 0.035, the concentration (Heart) was 1100 nM and the bioavailability [10] was 48%. For the same compound, the clearance [11] was 14 mL/min/kg and the half-life [12] was 2.3 h.

`CNS(=O)(=O)c1ccc(F)c(Nc2cc(Nc3ccc(Cl)cc3)ncn2)c1` gave an AUC/dose (Rattus norvegicus) of 1.1 kg·h/L.

Work on `CNS(=O)(=O)c1ccc(OC)c(Nc2cc(Nc3ccc(Cl)cc3)ncn2)c1` yielded an AUC/dose (Rattus norvegicus) of 0.69 kg·h/L, a bioavailability [10] of 100% and a clearance [11] of 26 mL/min/kg.

In the case of `CNS(=O)(=O)c1ccc(Cl)c(Nc2cc(Nc3ccc(Cl)cc3)ncn2)c1`, the AUC/dose (Rattus norvegicus) is reported as 0.7 kg·h/L, the bioavailability [10] is reported as 55% and the clearance [11] is reported as 14 mL/min/kg.

For `CNS(=O)(=O)c1ccc(S(=O)(=O)C(C)(C)C)c(Nc2cc(Nc3ccc(Cl)cn3)ncn2)c1`, the IC50 [2] was 2000 nM, the AUC/dose (Rattus norvegicus) was 0.076 kg·h/L and the “Ratio IC50” value [5] was “>=200”. It also gave an IC50 [1] of at most 10 nM.

For `CNS(=O)(=O)c1ccc(S(=O)(=O)C(C)C)c(Nc2cc(Nc3ccc(Cl)cn3)ncn2)c1`, the IC50 [2] was 500 nM, the AUC/dose (Rattus norvegicus) was 0.27 kg·h/L and the “Ratio IC50” value [5] was “>=50”. For the same compound, the IC50 [1] was at most 10 nM.

`CNS(=O)(=O)c1ccc(SC)c(Nc2cc(Nc3ccc(Cl)cc3)ncn2)c1` gave an AUC/dose (Rattus norvegicus) of 2.1 kg·h/L, a bioavailability [10] of 52% and a clearance [11] of 4.5 mL/min/kg.

For `CNS(=O)(=O)c1cccc(Nc2cc(Nc3cccc(Cl)c3)ncn2)c1`, the AUC/dose (Rattus norvegicus) was 0.064 kg·h/L, the IC50 [1] was 79 nM and the bioavailability [10] was 20%. The clearance [11] was 52 mL/min/kg.

Compound `CNS(=O)(=O)c1cccc(Nc2cc(Nc3ccccc3OC)ncn2)c1` has an IC50 [1] of 3200 nM.

In the case of `CNS(=O)(=O)c1cccc(Nc2cc(Nc3ccc(Cl)cn3)ncn2)c1`, the AUC/dose (Rattus norvegicus) is reported as 0.67 kg·h/L, the IC50 [1] is reported as 20 nM and the IC50 [8] is reported as 630 nM. The bioavailability [10] was 65%, the clearance [11] was 16 mL/min/kg and the “Ratio IC50” value [13] was 32.

In the case of `CNS(=O)(=O)c1ccc(OC)c(Nc2cc(Nc3ccc(Cl)cn3)ncn2)c1`, the IC50 [2] is reported as 20 nM, the AUC/dose (Rattus norvegicus) is reported as 1.3 kg·h/L and the “Ratio IC50” value [5] is reported as “>=2”. It also gave an IC50 [1] of at most 10 nM, a bioavailability [10] of 75% and a clearance [11] of 9.9 mL/min/kg.

`CNS(=O)(=O)c1cccc(Nc2cc(Nc3cccc(S(C)(=O)=O)c3)ncn2)c1` gave an IC50 [1] of 200 nM.

For `CNS(=O)(=O)c1cccc(Nc2cc(N(C)c3cccc(C)c3)ncn2)c1`, the IC50 [1] was 2000 nM, the IC50 [8] was 20 nM and the “Ratio IC50” value [13] was 0.01.

With `CNS(=O)(=O)c1cccc(Nc2ccnc(Nc3cccc(C)c3)n2)c1` the IC50 [1] was 630 nM.

Compound `CNS(=O)(=O)c1ccc(OC(F)(F)F)c(Nc2cc(Nc3ccc(Cl)cn3)ncn2)c1` has an IC50 [3] of 63 nM, an AUC/dose (Rattus norvegicus) of 0.91 kg·h/L and a bioavailability [10] of 67%. It also gave a clearance [11] of 12 mL/min/kg.

In the case of `CNS(=O)(=O)c1ccc(S(C)(=O)=O)c(Nc2cc(Nc3ccc(Cl)cn3)ncn2)c1`, the IC50 [2] is reported as 200 nM, the AUC/dose (Rattus norvegicus) is reported as 0.76 kg·h/L and the “Ratio IC50” value [5] is reported as 15. For the same compound, the IC50 [1] was 13 nM.

For `CNS(=O)(=O)c1cccc(Nc2cc(Nc3ccc(C)cc3)ncn2)c1`, the IC50 [1] was 79 nM.

Compound `CNS(=O)(=O)c1cccc(Nc2cc(Nc3cccc([N+](=O)[O-])c3)ncn2)c1` has an IC50 [3] of 500 nM and an IC50 [8] of 4 nM.

`CNS(=O)(=O)c1cccc(Nc2cc(Nc3cccc(OC)c3)ncn2)c1` showed an IC50 [1] of 63 nM.

Work on `CNS(=O)(=O)c1cccc(Nc2cc(Nc3ccccc3)ncn2)c1` yielded an IC50 [1] of 63 nM.

For `CNS(=O)(=O)c1cccc(N(C)c2cc(Nc3cccc(C)c3)ncn2)c1`, the IC50 [1] was 8000 nM, the IC50 [8] was 2000 nM and the “Ratio IC50” value [13] was 0.25.

`CNS(=O)(=O)c1cccc(Nc2cc(Nc3cccc(Br)c3)ncn2)c1` showed an AUC/dose (Rattus norvegicus) of 0.1 kg·h/L, an IC50 [1] of 79 nM and a bioavailability [10] of 33%. For the same compound, the clearance [11] was 53 mL/min/kg.

With `CNS(=O)(=O)c1cccc(Nc2cc(Nc3ccccc3C)ncn2)c1` the IC50 [1] was 1300 nM.

`CNS(=O)(=O)c1cccc(Nc2ccnc(Nc3cccc(C)c3)c2)c1` showed an IC50 [1] of 5000 nM.

Compound `CNS(=O)(=O)c1cccc(Nc2cc(Nc3ccc(Cl)cc3)ncn2)c1` has an AUC/dose (Rattus norvegicus) of 0.71 kg·h/L, an IC50 [1] of 79 nM and an IC50 [8] of 13 nM. It also gave a bioavailability [10] of 100% and a clearance [11] of 23 mL/min/kg.

Compound `CNS(=O)(=O)c1cccc(Nc2cc(Nc3cccc(C)c3)ncn2)c1` has an AUC/dose (Rattus norvegicus) of 0.037 kg·h/L, an IC50 [1] of 32 nM and an IC50 [8] of 3 nM. The bioavailability [10] was 19%, the clearance [11] was 86 mL/min/kg and the “Ratio IC50” value [13] was 0.1.

`CNS(=O)(=O)c1ccc(OC(F)(F)F)c(Nc2cc(Nc3ccc(Cl)cc3)ncn2)c1` showed an IC50 [3] of 320 nM, an AUC/dose (Rattus norvegicus) of 0.86 kg·h/L and a bioavailability [10] of 84%. It also gave a clearance [11] of 16 mL/min/kg.

For `CNS(=O)(=O)c1ccc(OCC(F)(F)F)c(Nc2cc(Nc3ccc(Cl)cn3)ncn2)c1`, the IC50 [2] was 13 nM, the AUC/dose (Rattus norvegicus) was 2.3 kg·h/L and the IC50 [1] was at most 10 nM. It also gave a bioavailability [10] of 99% and a clearance [11] of 7.4 mL/min/kg.

In the case of `CNS(=O)(=O)c1cccc(Nc2cc(Nc3ccc(C(F)(F)F)cc3)ncn2)c1`, the IC50 [1] is reported as 79 nM.

With `CNS(=O)(=O)c1cccc(Nc2ncnc(Nc3cccc(C)c3)n2)c1` the IC50 [1] was 20 nM.

For `CNS(=O)(=O)c1ccc(OCC(F)(F)F)c(Nc2cc(Nc3ccc(Cl)cc3)ncn2)c1`, the AUC/dose (Rattus norvegicus) was 0.32 kg·h/L, the bioavailability [10] was 37% and the clearance [11] was 20 mL/min/kg.

`CNS(=O)(=O)c1cccc(Nc2cc(Nc3ccc(OC)cc3)ncn2)c1` showed an IC50 [1] of 160 nM.

With `CNS(=O)(=O)c1cccc(Nc2cc(Nc3cccc(C(C)C)c3)ncn2)c1` the IC50 [1] was 50 nM, the IC50 [8] was 25 nM and the “Ratio IC50” value [13] was 0.5.

`CNS(=O)(=O)c1cccc(Nc2cc(Nc3ccc(S(C)(=O)=O)cc3)ncn2)c1` showed an IC50 [1] of 79 nM.

For `CNS(=O)(=O)c1cccc(Nc2cc(Nc3cccc(S(=O)(=O)NC)c3)ncn2)c1`, the IC50 [1] was 79 nM, the IC50 [8] was 1600 nM and the “Ratio IC50” value [13] was 20.

Compound `CNS(=O)(=O)c1ccc(N(C)C)c(Nc2cc(Nc3ccc(Cl)cc3)ncn2)c1` has an AUC/dose (Rattus norvegicus) of 0.096 kg·h/L, an IC50 [1] of 79 nM and a bioavailability [10] of 30%. For the same compound, the clearance [11] was 52 mL/min/kg.

Compound `CNS(=O)(=O)c1cccc(Nc2ncnc(Nc3ccc(Cl)cc3)n2)c1` has an IC50 [1] of 50 nM.
